Source: patent US20190029951A1, “EXTENDED RELEASE FORMULATIONS OF VELIPARIB FOR THE TREATMENT OF CANCER” (AbbVie Inc., priority 2016, published 2019)

How the values were obtained:
Type in all cases: in vivo, human
[1] = system: ovarian cancer; assay: Best tumor response in patients with ovarian cancer; details: patients with OC, 8/44
Text: (§1) The term “efficacy” as used herein refers to an inhibitory effect on tumor growth, which can be manifested as slowing, retarding, arresting or even reversing (i.e., shrinking) growth of the tumor. In some embodiments, the effect on tumor growth is associated with suppression by a PARP inhibitory compound, for example Veliparib. In clinical sittings, efficacy can be measured by one skilled in the art and by a number of efficacy endpoints, for example, overall survival (OS), progression free survival (PPS), time to progression (TTP), time to treatment failure (TTF), event-free survival (EFS), time to next treatment (TINT), objective response rate (ORR), duration of response (DoR), and/or response rate, for example, partial response (PR) or complete response (CR). The term “partial response” or “PR” as used herein, means a partial response of the target lesion, indicated by at least a 30% decrease in the sum of diameters of target lesions, taking as reference the baseline sum diameters.
(§2) Eligible patients had metastatic BRCA+ cancer, BRCA± high-grade serious ovarian/primary peritoneal/fallopian tube cancer (OC), (part 1/2), or BRCA+ breast cancer (BC), or OC (part 3).
(§3) Best tumor responses were compared between patients from Part 1 who received IR-v as the primary treatment and patients in Part 2 and Part 3 of the study who received ER-v formulation C. […]

[2] = system: breast cancer; assay: Best tumor response in patients with breast cancer; details: patients with BC, 6/16
Text: as §1, §2, §3

[3] = system: tumor growth (sum of the longest diameter for all target lesions); assay: Exposure-response tumor growth inhibition model (NONMEM nonlinear mixed-effects); details: final tumor growth inhibition model
Text: Fifty-four subjects (39 with ovarian, fallopian tube, or peritoneal cancers, 14 with breast cancer, and 1 with prostate cancer) were included in an exposure-response analysis using nonlinear mixed-effects modeling approach with NONMEM software (version 7.3.0) (Table 6).
Veliparib pharmacokinetics (PK) was described with a one-compartment model with first-order elimination process (kel) (FIG. 4). For the IR formulation, absorption was modeled as a first-order process (ka) (Equations 1a and 1b). For the ER formulation, the absorption was modeled as a zero-order process (Dose/Duration) (Equations 2a and 2b).
Subsequently, the relationship between veliparib PK exposure and longitudinal tumor growth inhibition was analyzed. The time course of tumor growth inhibition was modeled using an exponential tumor growth model represented by a single tumor compartment linked to veliparib central compartment with linear inhibitory effect of veliparib on tumor growth (see FIG. 4 and Equation 3). The possible measurement error at the baseline was accounted for by allowing individual deviations from the observed baseline as between-subject variability. Inter-individual variability was incorporated on the slope and estimated baseline using exponential function and the residual variability was characterized using additive error. […]

How did the “Confirmed and unconfirmed responses” value [1] turn out when C[C@]1(c2nc3c(C(N)=O)cccc3[nH]2)CCCN1 [veliparib, 2-[(2R)-2-methylpyrrolidin-2-yl]-1H-benzimidazole-4-carboxamide] was run?
The value was 18%.

What about the “Confirmed and unconfirmed responses” value [2] of the same compound?
Its value is 38%.

And the “BRCA effect on Slope (i.e., ratio of Slope for BRCA-mut to Slope for BRCA-wt), Population Estimate” value [3]?
Its value is 1.72.
